Measurements: ChEMBL document CHEMBL1134689, “Novel C-terminus modifications of the Dmt-Tic motif: a new class of dipeptide analogues showing altered pharmacological profiles toward the opioid receptors” (J Med Chem, 2001)
The source made the active and inactive calls. The calls are words filed in the database; no cut-off is given here.

What was measured:
[1] = biological target: T1, Delta-type opioid receptor (Homo sapiens, UniProt P41143); assay: Agonist potency using GTP-gamma [35S]- binding assay for delta-opioid receptor; Inactive
[2] = biological target: T1, Delta-type opioid receptor; assay: Binding affinity at cloned human delta-opioid receptor
[3] = biological target: T2, Mu-type opioid receptor (Homo sapiens, UniProt P35372); assay: Binding affinity at cloned human mu-opioid receptor
[4] = biological target: T3, Kappa-type opioid receptor (Homo sapiens, UniProt P41145); assay: Binding affinity at cloned human opioid receptor kappa 1
[5] = biological target: T2, Mu-type opioid receptor; assay: Agonist potency using GTP-gamma [35S]- binding assay for mu-opioid receptor; Inactive
[6] = biological target: T3, Kappa-type opioid receptor; assay: Agonist potency using GTP-gamma [35S]- binding assay for opioid receptor kappa 1
[7] = biological target: T3, Kappa-type opioid receptor; assay: Compound was tested for maximum stimulation of opioid receptor kappa 1 by GTP-gamma [35S]- binding assay
[8] = biological target: T1, Delta-type opioid receptor; assay: Agonist potency using GTP-gamma [35S]- binding assay for delta-opioid receptor
[9] = biological target: T3, Kappa-type opioid receptor
[10] = biological target: T2, Mu-type opioid receptor; assay: Agonist potency using GTP-gamma [35S]- binding assay for mu-opioid receptor

T3 sequence (P41145 whole entry): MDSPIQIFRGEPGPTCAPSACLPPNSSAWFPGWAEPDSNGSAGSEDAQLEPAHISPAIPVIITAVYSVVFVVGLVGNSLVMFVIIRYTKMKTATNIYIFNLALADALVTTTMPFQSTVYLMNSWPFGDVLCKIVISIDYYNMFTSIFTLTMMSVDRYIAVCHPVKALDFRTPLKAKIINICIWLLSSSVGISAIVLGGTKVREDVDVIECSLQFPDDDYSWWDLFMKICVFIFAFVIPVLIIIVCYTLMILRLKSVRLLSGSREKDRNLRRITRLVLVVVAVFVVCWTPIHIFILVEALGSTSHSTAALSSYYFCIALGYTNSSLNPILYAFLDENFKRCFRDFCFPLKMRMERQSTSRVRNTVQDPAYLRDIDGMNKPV
T2 sequence (P35372 whole entry): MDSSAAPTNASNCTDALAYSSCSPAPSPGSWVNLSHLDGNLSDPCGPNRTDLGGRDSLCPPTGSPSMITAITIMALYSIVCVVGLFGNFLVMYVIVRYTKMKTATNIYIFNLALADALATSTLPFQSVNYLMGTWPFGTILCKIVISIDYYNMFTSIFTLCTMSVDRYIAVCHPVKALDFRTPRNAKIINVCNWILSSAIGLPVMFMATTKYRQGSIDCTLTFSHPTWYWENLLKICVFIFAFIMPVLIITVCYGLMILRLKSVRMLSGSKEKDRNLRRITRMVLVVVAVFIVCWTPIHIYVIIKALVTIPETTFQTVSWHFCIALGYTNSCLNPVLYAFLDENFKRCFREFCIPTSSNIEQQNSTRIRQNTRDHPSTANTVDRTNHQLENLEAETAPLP
T1 sequence (P41143 whole entry): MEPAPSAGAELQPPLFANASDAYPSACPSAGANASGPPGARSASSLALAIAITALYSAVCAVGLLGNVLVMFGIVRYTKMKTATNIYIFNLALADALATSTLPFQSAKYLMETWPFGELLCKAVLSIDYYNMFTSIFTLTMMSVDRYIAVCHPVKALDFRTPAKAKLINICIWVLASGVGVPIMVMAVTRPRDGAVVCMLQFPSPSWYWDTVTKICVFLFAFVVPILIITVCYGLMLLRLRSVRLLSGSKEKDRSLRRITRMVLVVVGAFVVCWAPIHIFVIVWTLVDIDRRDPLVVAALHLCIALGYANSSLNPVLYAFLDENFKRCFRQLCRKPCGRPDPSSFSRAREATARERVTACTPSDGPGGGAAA

Row | Structure (SMILES) | NA [1] | IC50 [2] [nM] | IC50 [3] [nM] | IC50 [4] [nM] | NA [5] | EC50 [6] [nM] | Emax [7] [%] | EC50 [8] [nM] | NA [9] | EC50 [10] [nM]
1 | Cc1cc(O)cc(C)c1C[C@H](N)C(=O)N1Cc2ccccc2C[C@H]1CN | inactive | 4.9 | 113 | 521 | – | – | – | – | – | –
2 | CC(=O)OC[C@@H]1Cc2ccccc2CN1C(=O)[C@@H](N)Cc1c(C)cc(O)cc1C | inactive | 1.1 | 4.7 | 3100 | inactive | – | – | – | – | –
3 | Cc1cc(O)cc(C)c1C[C@H](N)C(=O)N1Cc2ccccc2C[C@H]1CNC(=O)NC12CC3CC(CC(C3)C1)C2 | inactive | 0.29 | 1.1 | 4.1 | inactive | 11.5 | 81.7 | – | – | –
4 | CCNC(=O)NC[C@@H]1Cc2ccccc2CN1C(=O)[C@@H](N)Cc1c(C)cc(O)cc1C | – | 0.99 | 169 | 321 | – | – | – | 5.7 | – | –
5 | Cc1cc(O)cc(C)c1C[C@H](N)C(=O)N1Cc2ccccc2C[C@H]1CNC(=S)NC(C)(C)C | – | 0.22 | 36 | 2.8 | – | 24.3 | – | 0.32 | – | –
6 | Cc1cc(O)cc(C)c1C[C@H](N)C(=O)N1Cc2ccccc2C[C@H]1COCc1ccccc1 | – | 0.33 | 12.5 | 64.6 | inactive | – | – | 0.97 | – | –
7 | COC[C@@H]1Cc2ccccc2CN1C(=O)[C@@H](N)Cc1c(C)cc(O)cc1C | inactive | 1.3 | 458 | 2510 | – | – | – | – | – | –
8 | Cc1cc(O)cc(C)c1C[C@H](N)C(=O)N1Cc2ccccc2C[C@H]1CN(C)C | inactive | 0.97 | 83.2 | 793 | – | – | – | – | – | –
9 | CC(C)[C@H](NC(=O)[C@H](CC(=O)O)NC(=O)[C@H](Cc1ccccc1)NC(=O)[C@@H](C)NC(=O)[C@@H](N)Cc1ccc(O)cc1)C(=O)N[C@H](C(=O)NCC(N)=O)C(C)C | – | – | – | – | – | – | – | – | inactive | –
10 | Cc1cc(O)cc(C)c1C[C@H](N)C(=O)N1Cc2ccccc2C[C@H]1CNC(=O)Nc1ccccc1 | – | 0.13 | 1 | 4.8 | – | 161 | 81.7 | 0.75 | – | 18.8
11 | Cc1cc(O)cc(C)c1C[C@H](N)C(=O)N1Cc2ccccc2C[C@H]1CNCC(C)(C)C | – | 0.99 | 1.3 | 1.5 | inactive | 1.4 | 102 | 2.8 | – | –
12 | CC(=N)NC[C@@H]1Cc2ccccc2CN1C(=O)[C@@H](N)Cc1c(C)cc(O)cc1C | – | 9.9 | 33.2 | 996 | – | – | – | – | – | –
13 | Cc1cc(O)cc(C)c1C[C@H](N)C(=O)N1Cc2ccccc2C[C@H]1CN=C(N)N | – | 3.2 | 12.8 | 345 | – | – | – | – | – | –
14 | Cc1cc(O)cc(C)c1C[C@H](N)C(=O)N1Cc2ccccc2C[C@H]1C/N=C(/S)NC(C)(C)C | – | – | – | – | – | – | 99.6 | – | – | –
15 | Cc1cc(O)cc(C)c1C[C@H](N)C(=O)N1Cc2ccccc2C[C@H]1CNC(=O)C(C)(C)C | inactive | 0.79 | 25.3 | 394 | – | – | – | – | – | –
16 | Cc1cc(O)cc(C)c1C[C@H](N)C(=O)N1Cc2ccccc2C[C@H]1CNC(=S)Nc1ccccc1 | – | 0.27 | 5.4 | 51.4 | – | – | – | 1.7 | – | –
17 | Cc1cc(O)cc(C)c1C[C@H](N)C(=O)N1Cc2ccccc2C[C@H]1C | inactive | 1.7 | 3 | 764 | – | – | – | – | – | –
18 | C=CCOC[C@@H]1Cc2ccccc2CN1C(=O)[C@@H](N)Cc1c(C)cc(O)cc1C | inactive | 0.98 | 108 | 1450 | – | – | – | – | – | –
19 | Cc1cc(O)cc(C)c1C[C@H](N)C(=O)N1Cc2ccccc2C[C@H]1CNC(=O)NC(C)(C)C | – | 0.17 | 61.8 | 1.3 | inactive | 6.9 | 96.9 | 0.65 | – | –
20 | CC(=O)NC[C@@H]1Cc2ccccc2CN1C(=O)[C@@H](N)Cc1c(C)cc(O)cc1C | – | 0.79 | 16.1 | 9380 | – | – | – | 1.5 | – | –
21 | Cc1cc(O)cc(C)c1C[C@H](N)C(=O)N1Cc2ccccc2C[C@H]1CNCc1ccccc1 | – | 0.41 | 0.65 | 1.5 | – | 6.8 | 100 | 0.92 | – | 37.1
22 | Cc1cc(O)cc(C)c1C[C@H](N)C(=O)N1Cc2ccccc2C[C@H]1CN=[N+]=[N-] | – | 1.1 | 94.6 | 1070 | – | – | – | 49.4 | – | –
23 | Cc1cc(O)cc(C)c1C[C@H](N)C(=O)N1Cc2ccccc2C[C@H]1CO | inactive | 2 | 421 | > 10000 | inactive | – | – | – | – | –
24 | Cc1cc(O)cc(C)c1C[C@H](N)C(=O)N1Cc2ccccc2C[C@H]1CNC(=O)c1ccccc1 | inactive | 0.24 | 0.98 | 307 | – | – | – | – | – | 109
